Source: US20210186903A1, “TREATMENT FOR DEMYELINATING DISEASE” (CAMBRIDGE ENTERPRISE LIMITED, priority 2018, published 2021)
“Also recorded” adds a separate entry of the source.

Columns and labels:
[1] = test system: young adult OPCs (2-3 months old); settings: T3 40 ng/ml, 9cRA 50 nM, miconazole 1 μM, benztropine 1.5 μM, O4, CNPase, MBP markers
Experimental: Adult rats (2-27 months) were decapitated after lethal injection of phenobarbital into the tail vein. The brains were removed quickly and placed into ice-cold isolation medium (Tab. S3, alternatively Hibernate A (Brainbits). The telencephalon and cerebellum were dissected in isolation medium; meninges, and the olfactory bulb were mechanically removed and the brain tissue was mechanically minced into 1 mm3 pieces. The tissue pieces were spun down at 100 g for 1 min at RT and the tissue was washed in HBSS− (no Mg2+ and Ca2+, Gibco). Each half of the brain was mixed with 5 ml of dissociation solution (34 U/ml papain (Worthington), 20 μg/ml DNAse Type IV (Gibco) in isolation medium). The brain tissue was dissociated on a shaker (50 rpm) 494 for 40 min at 35° C. The digestion was stopped by addition of ice cold HBSS−. The tissue was centrifuged (200 g, 3 min, RT), the supernatant completely aspirated and the tissue resuspended in isolation medium supplemented with 2% B27 and 2 mM sodium-pyruvate (trituration solution). The tissue was allowed to sit in this solution for 5 min. To obtain a single cell suspension the tissue suspension was triturated 10 times using first a 5 ml serological pipette and subsequently three fire polished glass pipettes (opening diameter >0.5 mm). […]

aged OPCs [2] = assay: Differentiation assay of cultured aged OPCs; type: cell-based, rat; settings: for differentiation of aged OPCs: aged OPCs (20-24 months), T3 40 ng/ml, 9cRA 50 nM, miconazole 1 μM, benztropine 1.5 μM
Experimental: Adult rats (2-27 months) were decapitated after lethal injection of phenobarbital into the tail vein. The brains were removed quickly and placed into ice-cold isolation medium (Tab. S3, alternatively Hibernate A (Brainbits). The telencephalon and cerebellum were dissected in isolation medium; meninges, and the olfactory bulb were mechanically removed and the brain tissue was mechanically minced into 1 mm3 pieces. The tissue pieces were spun down at 100 g for 1 min at RT and the tissue was washed in HBSS− (no Mg2+ and Ca2+, Gibco). Each half of the brain was mixed with 5 ml of dissociation solution (34 U/ml papain (Worthington), 20 μg/ml DNAse Type IV (Gibco) in isolation medium). The brain tissue was dissociated on a shaker (50 rpm) 494 for 40 min at 35° C. The digestion was stopped by addition of ice cold HBSS−. The tissue was centrifuged (200 g, 3 min, RT), the supernatant completely aspirated and the tissue resuspended in isolation medium supplemented with 2% B27 and 2 mM sodium-pyruvate (trituration solution). The tissue was allowed to sit in this solution for 5 min. To obtain a single cell suspension the tissue suspension was triturated 10 times using first a 5 ml serological pipette and subsequently three fire polished glass pipettes (opening diameter >0.5 mm). After each trituration step the tissue suspension was allowed to sediment (approximately 1-2 min) and the supernatant (approximately 2 ml), containing the cells, was transferred into a fresh tube. After each round of trituration 2 ml of fresh trituration solution were added. To remove accidentally transferred undigested tissue bits, the collected supernatant was filtered through 70 μm cell strainers into tubes that contained 90% isotonic Percoll (GE Healthcare, 17-0891-01, in 10×PBS pH7.2 (Lifetech). The final volume was topped up with phenol-red free DMEM/F12 with HEPES (Gibco) and mixed to yield a homogenous suspension with a final Percoll concentration of 22.5%. The single cell suspension was separated from remaining debris particles by gradient density centrifugation (800 g, 20 min, RT, without break). The myelin debris and all layers without cells were discarded and the brain cell containing phase (last 2 ml) and cell pellet were resuspended in HBSS+ and combined in a fresh 15 ml tubes and centrifuged (300 g, 5 min, RT). The cell pellet was resuspended in red blood cell lysis buffer (Sigma, R7757) and incubated for 1 min at RT to remove red blood cells. 10 ml of HBSS+ were added to this cell suspension and spun down (300 g, 5 min, RT). The cell pellets were resuspended in 0.5 ml modified Milteny washing buffer (MWB, 2 mM EDTA, 2 mM Na-Pyruvate, 0.5% BSA in PBS, pH 7.3) supplemented with 10 ng/ml human recombinant insulin (Gibco). […]

aged OPCs [3] = assay: Comet assay (DNA damage) of aged OPCs; type: cell-based, rat
Experimental: For comet assays of freshly isolated OPCs approximately 5000 OPCs were resuspended in 100 μl PBS and mixed with 300 μl 1% low melting point agarose (37° C.). Alternatively, when OPCs were cultured prior to the assay, the cells were detached using TrypLE 1× Select (Gibco) for 8 min at 37° C. The comet assay was then performed as described in reference 33. Briefly, OPCs were centrifuged at 300 g for 5 min. at room temperature and the cell pellet was resuspended with 100 μl PBS and then mixed with 300 μl molten low-melting point agarose pre-incubated at 37° C. The cell-agarose suspension was then applied gently onto polysine slides that were pre-treated with 1% agarose and allowed 590 to solidify at 4° C. The slides were submersed in alkaline cell lysis buffer (0.3M NaOH, 100 mM EDTA, 0.1% (w/v) N592 Lauroylsarcosine (Sigma, 61745), 1.2M NaCl in ddH2O) for 16 hours at 4° C. in the dark. […] Finally, electrophoresed and propidium iodide stained DNA was visualized using a Zeiss Axiovision Fluorescence microscope (Carl Zeiss), and 50-100 nuclei per animal were visually scored according to published protocols^34. Statistical significance was determined comparing respective damage categories between experimental groups by a two-tailed unpaired t-test. […]

aged female SD rats = assay: Remyelination after ethidium bromide lesion of caudal cerebellar peduncle in aged rats; type: in vivo, rat; settings: for degree of remyelination versus control animals: aged rats fed ad libitum, metformin 300 mg/kg bodyweight in drinking water from 15 months, lesion at 18 months, assessed 50 days later, rank
Experimental: The animals were housed under standard laboratory conditions on a 12 h light/dark cycle with constant access to food and water. […] For metformin treatment 15 months old female SD rats that were fed ad libitum received metformin (Glucophage) in their drinking water (300 mg/kg bodyweight per day). Metformin treatment was interrupted for two days before and three days after surgery and then commenced to the end of the study (21 days after lesion induction). Fluid consumption was continuously monitored to adapt dosages. For studies involving demyelination, female Sprague Dawley rats (Harlan Laboratories) 18 months of age were used. The rats were anesthetized with buprenorphine (0.03 mg/kg, s.c.) 471 and 2.5% isoflurane. Demyelination was induced by stereotaxic injection of 4 μl of 0.01% ethidium bromide (EB) into the caudal cerebellar peduncles (CCPs), as previously described 28. EB was delivered at a rate of 1 μl/min. After EB delivery the injection needle remained in position for additional 4 min. To assess remyelination the rats were transcardially perfused with 4% glutaraldehyde and 0.4 mM CaCl2) in PBS. The cerebellum was cut in to transverse 1 mm thick sections. The tissue was fixed in 2% osmium-tetroxide at 4° C. overnight, dehydrated through a series of washes in ethanol and propylene-oxide and embedded in resin. From the resin blocks 1 μm thick sections were cut and stained with 1% toluidine blue.

aged OPCs [4] = assay: qRT-PCR for OPC genes and Cdkn2a in cultured aged OPCs; type: cell-based, rat; settings: aged OPCs (≥18 months)
Experimental: After isolation, OPCs were left to recover in OPC medium (60 μg/ml N-Acetyl cysteine (Sigma), 10 μg/ml human recombinant insulin (Gibco), 1 mM sodium pyruvate (Gibco), 50 μg/ml apo-transferrin (Sigma), 16.1 μg/ml putrescine (Sigma), 40 ng/ml sodium selenite (Sigma), 60 ng/ml progesterone (Sigma), 330 μg/ml bovine serum albumin (Sigma)) supplemented with b-FGF and PDGF (30 ng/ml each, Peprotech).
RNA was isolated from freshly purified OPCs or from cultured OPCs according to the Directzol RNA MicroPrep Kit (Zymo Research; R2061). All RNA samples were stored at −80° C. prior to further processing. cDNA was generated using the QuantiTect Reverse Transcription Kit's according to the instructions of the manufacturer (Qiagen; 205310). For RT-qPCR, primers (see Extended Data Tab. 5) were used at a concentration of […]. The efficiency of each primer was greater than […] as determined for each primer pair by serial dilutions of OPC cDNA. cDNA, primers, and the Syber Green Master Mix (Qiagen; 04141) were mixed as instructed by the manufacturer, and RT-qPCR and melting curve analysis were performed on Life Technologies' Quantstudio 6 Flex Real-Time PCR System. Fold changes in gene expression were calculated using the delta delta Ct method in Microsoft Excel. Statistical significance was determined using two-tailed unpaired t-tests assuming equal variances.

SMILES	differentiation of young OPCs [1]	differentiation of aged OPCs (aged OPCs [2])	DNA damage, comet assay (aged OPCs [3]; aged OPCs (≥18 months), 100 μM metformin during first 5 days of culture)	hallmarks of aging of aged OPCs (aged OPCs [3]; aged OPCs, DNA damage among the hallmarks)	degree of remyelination versus control animals (aged female SD rats)	degree of remyelination versus control animals (aged female SD rats; listed as Metformin)	degree of remyelination versus ADF animals (aged female SD rats; aged rats, metformin 300 mg/kg in drinking water for three months prior to lesion, compared with alternate day fasting)	proportion of MBP expressing oligodendrocytes with highly arborized morphology (aged OPCs [2]; aged OPCs exposed to metformin, in the presence of pro-differentiation factors)	differentiation of aged OPCs (differentiation potential), agent added before differentiation (aged OPCs [2]; aged OPCs, agent added prior to pro-differentiation compounds / onset of differentiation, Olig2+MBP+ cells)	expression of Cdkn2a (senescence marker) (aged OPCs [4]; 100 μM metformin during first 5 days of culture)	expression of Pdgfra and Ascl1 (OPC self-renewal genes) (aged OPCs [4]; 100 μM metformin during first 5 days of culture with growth factors)
CC1=C(/C=C/C(C)=C\C=C\C(C)=C\C(=O)O)C(C)(C)CCC1 [9-cis-retinoic acid]	enhanced differentiation in young	but not aged OPCs	–	–	–	–	–	–	–	–	–
CN1[C@@H]2CC[C@H]1C[C@@H](OC(c1ccccc1)c1ccccc1)C2 [benztropine]	enhanced differentiation in young	but not aged OPCs	–	–	–	–	–	–	–	–	–
CN(C)C(=N)NC(=N)N [metformin, N,N-dimethylbiguanide]	–	–	less DNA damage	ameliorates hallmarks of ageing	enhances remyelination in aged rats	significantly higher compared to control animals	comparable to animals undergoing ADF	significant increase	restores the ability of aged OPCs to differentiate; also recorded: enhanced differentiation of aged OPCs	expressed significantly less Cdkn2a	increased their expression of Pdgfra and Ascl1
